# Experimental data reported in US11066369B2, “N-(pyridin-2-yl)pyridine-sulfonamide derivatives and their use in the treatment of disease” (Novartis AG, priority 2016, dated 2021).
# pEC50: −log10 of the molar value. Structures can show the parent of a compound that is named as a salt. Where two headings read alike, the source gives them in different places.
# Target: T1, horseradish peroxidase (HRP) tagged delF508-CFTR (Homo sapiens, UniProt P13569, DEL508-508)
# T1 construct: expressed in transfected cells
# Assay: Measurement of delF508-CFTR-HRP surface expression in CFBE41o- cells;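 on DelF508-CFTR-HRP Amax %: percent efficacy relative to reference corrector lumacaftor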
# Type: cell-based
# Conditions: CFBE41o- cells; for pEC50: read-out: DelF508-CFTR-HRP EC50; for Emax: read-out: DelF508-CFTR-HRP Amax %
# How it was run: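 Surface-trafficked delF508-CFTR detected via extracellular HRP tag, read as luminescence from a membrane-impermeant substrate in CFBE41o- cells. Cells pre-induced 48h with 500 ng/mL doxycycline, then exposed 24h at 37° C to a 10-point, 3-fold dilution series from 10 μM (DMSO ≤0.5%). Triplicate dose-responses fitted logistically for EC50 after per-plate normalization; fold change versus reference compound.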
# [1] = mean of at least two replicates
# [2] = delF508-CFTR-HRP surface expression
# T1 sequence (P13569 with tags, fused parts or gaps DEL508-508): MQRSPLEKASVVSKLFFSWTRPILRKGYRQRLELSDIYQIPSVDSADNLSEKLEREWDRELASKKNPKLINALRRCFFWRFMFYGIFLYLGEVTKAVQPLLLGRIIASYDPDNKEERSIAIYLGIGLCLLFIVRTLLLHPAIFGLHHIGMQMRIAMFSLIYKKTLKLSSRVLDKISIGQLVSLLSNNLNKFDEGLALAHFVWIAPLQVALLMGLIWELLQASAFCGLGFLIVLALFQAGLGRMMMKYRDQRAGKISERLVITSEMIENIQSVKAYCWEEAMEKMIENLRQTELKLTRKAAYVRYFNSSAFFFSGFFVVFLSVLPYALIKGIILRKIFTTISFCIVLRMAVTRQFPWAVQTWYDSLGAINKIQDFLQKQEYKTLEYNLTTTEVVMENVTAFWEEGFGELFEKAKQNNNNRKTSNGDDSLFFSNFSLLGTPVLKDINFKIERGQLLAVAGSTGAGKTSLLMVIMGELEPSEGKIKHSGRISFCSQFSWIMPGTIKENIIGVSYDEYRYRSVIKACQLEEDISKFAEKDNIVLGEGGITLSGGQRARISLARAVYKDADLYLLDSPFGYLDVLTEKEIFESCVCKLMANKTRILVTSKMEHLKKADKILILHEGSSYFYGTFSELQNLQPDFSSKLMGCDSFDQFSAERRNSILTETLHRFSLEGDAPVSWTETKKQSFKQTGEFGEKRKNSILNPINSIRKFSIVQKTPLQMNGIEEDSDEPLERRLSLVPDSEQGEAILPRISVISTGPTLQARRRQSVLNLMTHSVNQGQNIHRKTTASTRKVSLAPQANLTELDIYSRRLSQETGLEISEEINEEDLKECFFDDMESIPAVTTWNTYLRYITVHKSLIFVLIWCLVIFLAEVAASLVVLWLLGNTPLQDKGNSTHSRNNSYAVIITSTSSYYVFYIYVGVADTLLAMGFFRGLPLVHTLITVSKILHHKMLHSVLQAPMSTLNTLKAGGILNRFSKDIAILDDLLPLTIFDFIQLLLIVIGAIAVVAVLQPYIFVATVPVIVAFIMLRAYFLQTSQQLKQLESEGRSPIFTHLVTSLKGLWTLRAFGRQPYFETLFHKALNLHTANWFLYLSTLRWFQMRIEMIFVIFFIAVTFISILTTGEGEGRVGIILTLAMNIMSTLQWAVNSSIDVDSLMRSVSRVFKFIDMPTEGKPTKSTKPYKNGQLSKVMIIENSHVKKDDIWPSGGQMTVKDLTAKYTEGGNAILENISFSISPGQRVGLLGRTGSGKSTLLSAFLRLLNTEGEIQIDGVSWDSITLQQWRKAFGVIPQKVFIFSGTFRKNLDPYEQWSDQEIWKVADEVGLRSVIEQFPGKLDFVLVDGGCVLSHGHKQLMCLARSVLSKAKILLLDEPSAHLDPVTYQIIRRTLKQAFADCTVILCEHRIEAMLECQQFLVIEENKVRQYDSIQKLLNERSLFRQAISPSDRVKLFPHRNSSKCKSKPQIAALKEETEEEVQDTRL
Compound,pEC50 [1],Emax (surface expression Amax),pEC50 [2],Emax [2]
"C[C@@]1(C(=O)O)CCCN(c2cccc(S(=O)(=O)Nc3ccc(Cl)c(-c4ccccc4C4CCC4)n3)n2)C1 [Example 391, (R)-1-(6-(N-(5-chloro-6-(2-cyclobutylphenyl)pyridin-2-yl)sulfamoyl)pyridin-2-yl)-3-methylpiperidine-3-carboxylic Acid]",6.28,503%,,
"Cc1ccc(F)cc1-c1nc(NS(=O)(=O)c2ccnc(N)c2)ccc1Cl [Example 46, 2-amino-N-(5-chloro-6-(5-fluoro-2-methylphenyl)pyridin-2-yl)pyridine-4-sulfonamide]",,,5.71,339%
"CCc1ccccc1-c1nc(NS(=O)(=O)c2cccc(N3CCC[C@@](C)(C(=O)O)C3)n2)ccc1Cl [Example 393, (R)-1-(6-(N-(5-chloro-6-(2-ethylphenyl)pyridin-2-yl)sulfamoyl)pyridin-2-yl)-3-methylpiperidine-3-carboxylic Acid]",5.98,680%,,
"CC(C)Oc1ccc(Cl)cc1-c1nc(NS(=O)(=O)c2cccc(N3CCCC(C)(C(=O)O)C3)n2)ccc1C(F)(F)F (centres unmarked) [Example 433, 1-(6-(N-(6-(5-chloro-2-isopropoxyphenyl)-5-(trifluoromethyl)pyridin-2-yl)sulfamoyl)pyridin-2-yl)-3-methylpiperidine-3-carboxylic Acid]",6.36,571%,,
"Cc1ccc(F)cc1-c1nc(NS(=O)(=O)c2cccc(N3CCN(C(=O)OC(C)(C)C)CC3)n2)ccc1Cl [Example 298, tert-butyl 4-(6-(N-(5-chloro-6-(5-fluoro-2-methylphenyl)pyridin-2-yl)sulfamoyl)pyridin-2-yl)piperazine-1-carboxylate]",,,5.83,677%
"Cc1cccc(C)c1-c1nc(NS(=O)(=O)c2cccc(N3CCC[C@@](C)(C(=O)O)C3)n2)ccc1Cl [Example 448, (R)-1-(6-(N-(5-chloro-6-(2,6-dimethylphenyl)pyridin-2-yl)sulfamoyl)pyridin-2-yl)-3-methylpiperidine-3-carboxylic Acid]",5.83,,,
"COc1ccc(Cl)c(-c2nc(NS(=O)(=O)c3cccc(N4CCC[C@@](C)(C(=O)O)C4)n3)ccc2C(F)(F)F)c1 [Example 424, (R)-1-(6-(N-(6-(2-chloro-5-methoxyphenyl)-5-(trifluoromethyl)pyridin-2-yl)sulfamoyl)pyridin-2-yl)-3-methylpiperidine-3-carboxylic Acid]",5.69,,,
"COc1ccc(Cl)c(-c2nc(NS(=O)(=O)c3cccc(N4CCC(C)(C(=O)O)CC4)n3)ccc2Cl)c1 [Example 244, 1-(6-(N-(5-chloro-6-(2-chloro-5-methoxyphenyl)pyridin-2-yl)sulfamoyl)pyridin-2-yl)-4-methylpiperidine-4-carboxylic Acid]",,,5.44,222%
"Cc1cc(F)cc(C)c1-c1nc(NS(=O)(=O)c2cccc(N)n2)ccc1Cl [Example 30, 6-amino-N-(5-chloro-6-(4-fluoro-2,6-dimethylphenyl)pyridin-2-yl)pyridine-2-sulfonamide]",,,5.77,421%
"CC(C)Oc1ccc(Cl)cc1-c1nc(NS(=O)(=O)c2cccc(N3CCC(C)(C(=O)O)CC3)n2)ccc1C(F)(F)F [Example 427, 1-(6-(N-(6-(5-chloro-2-isopropoxyphenyl)-5-(trifluoromethyl)pyridin-2-yl)sulfamoyl)pyridin-2-yl)-4-methylpiperidine-4-carboxylic Acid]",6.20,282%,,
"Cc1cc(F)ccc1-c1nc(NS(=O)(=O)c2cccc(N)n2)ccc1Cl [Example 37, 6-amino-N-(5-chloro-6-(4-fluoro-2-methylphenyl)pyridin-2-yl)pyridine-2-sulfonamide]",,,5.64,386%
"COc1cc(NS(=O)(=O)c2cccc(N3CCNCC3)n2)nc(-c2c(C)cccc2C)c1 [Example 139, N-(6-(2,6-dimethylphenyl)-4-methoxypyridin-2-yl)-6-(piperazin-1-yl)pyridine-2-sulfonamide]",,,5.30,53.2%
"Cc1ccc(C#N)cc1-c1nc(NS(=O)(=O)c2ccnc(N)c2)ccc1C(F)(F)F [Example 64, 2-amino-N-(6-(5-cyano-2-methylphenyl)-5-(trifluoromethyl)pyridin-2-yl)pyridine-4-sulfonamide]",,,5.71,223%
"Cc1cccc(F)c1-c1nc(NS(=O)(=O)c2ccc(N)nc2)ccc1Cl [Example 60, 6-amino-N-(5-chloro-6-(2-fluoro-6-methylphenyl)pyridin-2-yl)pyridine-3-sulfonamide]",,,5.53,253%
"COc1ccc(NS(=O)(=O)c2cccc(N3CCC[C@@](C)(C(=O)O)C3)n2)nc1-c1ccccc1C [Example 410, (R)-1-(6-(N-(5-methoxy-6-(o-tolyl)pyridin-2-yl)sulfamoyl)pyridin-2-yl)-3-methylpiperidine-3-carboxylic Acid]",5.72,210%,,
"COc1ccc(Cl)cc1-c1nc(NS(=O)(=O)c2cccc(N3CCC(C)(C(=O)O)CC3)n2)ccc1C(F)(F)F [Example 426, 1-(6-(N-(6-(5-chloro-2-methoxyphenyl)-5-(trifluoromethyl)pyridin-2-yl)sulfamoyl)pyridin-2-yl)-4-methylpiperidine-4-carboxylic Acid]",5.64,287%,,
"Cc1c(F)cccc1-c1nc(NS(=O)(=O)c2cccc(N3CCn4cnnc4C3)n2)ccc1Cl [Example 146, N-(5-chloro-6-(3-fluoro-2-methylphenyl)pyridin-2-yl)-6-(5,6-dihydro-[1,2,4]triazolo[4,3-a]pyrazin-7(8H)-yl)pyridine-2-sulfonamide]",,,5.37,59.1%

# The remaining lines, values ahead:
pEC50 [1],Emax (surface expression Amax),pEC50 [2],Emax [2],Compound
,,6.03,,"CCCOc1ccccc1-c1nc(NS(=O)(=O)c2cccc(N3CCC[C@@](C)(C(=O)O)C3)n2)ccc1C(F)(F)F [Example 329, (R)-3-methyl-1-(6-(N-(6-(2-propoxyphenyl)-5-(trifluoromethyl)pyridin-2-yl)sulfamoyl)pyridin-2-yl)piperidine-3-carboxylic Acid]"
5.70,53.4%,,,"O=C(O)[C@]12CC[C@H](O1)[C@H](Nc1cccc(S(=O)(=O)Nc3ccc(C(F)(F)F)c(-c4ccccc4C4CC4)n3)n1)C2 (racemic) [Example 438, rac-(1RS,3RS,4SR)-3-((6-(N-(6-(2-cyclopropylphenyl)-5-(trifluoromethyl)pyridin-2-yl)sulfamoyl)pyridin-2-yl)amino)-7-oxabicyclo[2.2.1]heptane-1-carboxylic Acid]"
,,5.39,115%,"Cc1ccc(C#N)cc1-c1nc(NS(=O)(=O)c2cccc(N)n2)ccc1C(F)(F)F [Example 83, 6-amino-N-(6-(5-cyano-2-methylphenyl)-5-(trifluoromethyl)pyridin-2-yl)pyridine-2-sulfonamide]"
5.57,94.1%,,,"CC1(C(=O)O)CCCN(c2cccc(S(=O)(=O)Nc3ccc(C(F)(F)F)c(-c4ccccc4CCO)n3)n2)C1 (centres unmarked) [Example 445, 1-(6-(N-(6-(2-(2-hydroxyethyl)phenyl)-5-(trifluoromethyl)pyridin-2-yl)sulfamoyl)pyridin-2-yl)-3-methylpiperidine-3-carboxylic Acid]"
,,5.63,334%,"CC(F)(F)c1ccccc1-c1nc(NS(=O)(=O)c2cccc(N)n2)ccc1Cl [Example 48, 6-amino-N-(5-chloro-6-(2-(1,1-difluoroethyl)phenyl)pyridin-2-yl)pyridine-2-sulfonamide]"
,,5.44,66.2%,"Cc1ccccc1-c1nc(NS(=O)(=O)c2cccc(N[C@@H]3CCNC[C@H]3O)n2)ccc1C(F)(F)F [Example 114, 6-(((3R,4R)-3-hydroxypiperidin-4-yl)amino)-N-(6-(o-tolyl)-5-(trifluoromethyl)pyridin-2-yl)pyridine-2-sulfonamide Hydrochloride]"
,,5.34,148%,"Cc1ccccc1-c1nc(NS(=O)(=O)c2cccc(N[C@H]3CCNC3)n2)ccc1C(F)(F)F [Example 124, (S)-6-(pyrrolidin-3-ylamino)-N-(6-(o-tolyl)-5-(trifluoromethyl)pyridin-2-yl)pyridine-2-sulfonamide Hydrochloride]"
,,5.86,327%,"Nc1cccc(S(=O)(=O)Nc2ccc(Cl)c(-c3c(Cl)cccc3C(F)(F)F)n2)n1 [Example 52, 6-amino-N-(5-chloro-6-(2-chloro-6-(trifluoromethyl)phenyl)pyridin-2-yl)pyridine-2-sulfonamide]"
5.63,155%,,,"CC(C)c1ccccc1-c1nc(NS(=O)(=O)c2cccc(N[C@@H]3C[C@@]4(C(=O)O)CC[C@@H]3O4)n2)ccc1C(F)(F)F (racemic) [Example 403, rac-(1RS,3RS,4SR)-3-((6-(N-(6-(2-isopropylphenyl)-5-(trifluoromethyl)pyridin-2-yl)sulfamoyl)pyridin-2-yl)amino)-7-oxabicyclo[2.2.1]heptane-1-carboxylic Acid]"
,,5.53,225%,"Cc1ccccc1-c1nc(NS(=O)(=O)c2cccc(OC3COCC3=O)n2)ccc1C(F)(F)F (racemic) [Example 292, 6-((4-oxotetrahydrofuran-3-yl)oxy)-N-(6-(o-tolyl)-5-(trifluoromethyl)pyridin-2-yl)pyridine-2-sulfonamide]"
,,5.79,490%,"Cc1ccccc1-c1nc(NS(=O)(=O)c2cccc(N)n2)cc(C(F)(F)F)c1Cl [Example 22, 6-amino-N-(5-chloro-6-(o-tolyl)-4-(trifluoromethyl)pyridin-2-yl)pyridine-2-sulfonamide]"
